Measurements published in ChEMBL document CHEMBL1201862, “PubChem BioAssay data set” (2004).
Counter-ions that a name gives are not always drawn.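 Five concentrations, 48 hours, 96-well plates. GI50 is the concentration that inhibits growth by half.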 The source made the active and inactive calls. Cut-off read from the data, not from the text of the source: active = GI50 up to about 1.1 µM and inactive = higher.

Legend:
Test in all cases: NCI anticancer screen, dose series, 48 h
Hs-578T = system: Hs-578T
NCI/ADR-RES = system: NCI/ADR-RES
BT-549 = system: BT-549
T47D = system: T47D
MDA-MB-231 = system: MDA-MB-231
LXFL 529 = system: LXFL 529
M19-MEL = system: M19-MEL
RXF 631 = system: RXF 631

Structure (SMILES)	GI50 (Hs-578T)	GI50 (NCI/ADR-RES)	GI50 (BT-549)	GI50 (T47D)	GI50 (MDA-MB-231)	GI50 (LXFL 529)	GI50 (M19-MEL)	GI50 (RXF 631)
O=S1(=O)C[C@H](NCc2ccccc2)[C@H](NCc2ccccc2)C1	73.3 µM (inactive)	61.5 µM (inactive)	94.2 µM (inactive)	30.8 µM (inactive)	> 100 µM (inactive)	–	–	–
COC(=O)NN1C(=O)C(=P(c2ccccc2)(c2ccccc2)c2ccccc2)C(C(=O)OC)=C1C	–	–	–	–	–	> 100 µM (inactive)	> 100 µM (inactive)	> 100 µM (inactive)
O=C(/C=C1\Nc2ncccc2N=C1CC(=O)c1ccccc1)c1ccccc1	15.6 µM (inactive)	4.56 µM (inactive)	2.71 µM (inactive)	9.31 µM (inactive)	10.6 µM (inactive)	–	–	–
Nc1nnc(O)c2c1c(I)cn2C1OC(CO)C(O)C1O (configuration not stated)	–	–	–	–	–	0.646 µM (active)	–	0.295 µM (active)
O=C1CC2CC3OC3[C@H]3c4cc5c(cc4C(=O)N1C23)OCO5 (some centres not stated)	–	–	–	–	–	> 100 µM (inactive)	> 100 µM (inactive)	–
CCCCc1oc2ccccc2c1C(=O)c1cc(I)c(OCCN(CC)CC)c(I)c1 [AMIODARONE HYDROCHLORIDE]	–	5.86 µM (inactive)	–	–	–	–	4.67 µM (inactive)	–
NCCCCNOCCCN	> 100 µM (inactive)	> 100 µM (inactive)	> 100 µM (inactive)	> 100 µM (inactive)	–	–	–	–
COC(=O)C1=C(O)C(C(=O)OC)[C@@]2(O)[C@@H](C(=O)OC)[C@H](C)C[C@@H]1[C@@H]2C(=O)OC (some centres not stated)	19.9 µM (inactive)	–	32.9 µM (inactive)	46.8 µM (inactive)	14.1 µM (inactive)	–	–	–
NCc1ccccc1-c1c2nc(c(-c3ccccc3CN)c3ccc([nH]3)c(-c3ccccc3CN)c3nc(c(-c4ccccc4CN)c4ccc1[nH]4)C=C3)C=C2	–	–	–	–	–	22.1 µM (inactive)	22.2 µM (inactive)	–
CCOC(=O)C(=O)Nc1c(CC)cccc1C(C)CC (configuration not stated)	–	–	–	–	–	> 100 µM (inactive)	> 100 µM (inactive)	> 100 µM (inactive)
